Measurements from patent publication US20150353495A1 (PORTOLA PHARMACEUTICALS, INC., priority 2010, published 2015).

Experiments:
Type in all cases: biochemical
[1] = biological target: T1, JAK3 (Homo sapiens, UniProt P52333); assay: Z'-LYTE kinase assay JAK3
T1 construct: 5 μl of catalytic domain recombinant Kinase enzyme+Tyr peptide substrate (Invitrogen, CA); purchased Invitrogen
Outline: (§1)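 In duplicate wells, each test molecule (1% final DMSO) is incubated with recombinant kinase catalytic domain, Tyr6 peptide substrate and ATP for one hour at room temperature; a site-specific protease is then added for another hour before fluorescence reading.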

[2] = biological target: T2, JAK2 (Homo sapiens, UniProt O60674); assay: Z'-LYTE kinase assay JAK2
T2 construct: 5 μl of catalytic domain recombinant Kinase enzyme+Tyr peptide substrate (Invitrogen, CA); purchased Invitrogen
T2 sequence (O60674 849-1124 limits assumed): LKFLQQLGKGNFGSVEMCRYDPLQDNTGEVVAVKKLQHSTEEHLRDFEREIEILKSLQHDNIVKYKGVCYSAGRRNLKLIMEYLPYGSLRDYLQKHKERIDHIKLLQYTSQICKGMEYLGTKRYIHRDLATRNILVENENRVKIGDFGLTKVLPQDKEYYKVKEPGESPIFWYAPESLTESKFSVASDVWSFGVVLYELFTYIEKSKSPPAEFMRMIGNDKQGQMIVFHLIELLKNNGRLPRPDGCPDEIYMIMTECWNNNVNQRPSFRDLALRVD
Outline: as §1

[3] = biological target: T3, JAK1 (Homo sapiens, UniProt P23458); assay: Z'-LYTE kinase assay JAK1
T3 construct: 5 μl of catalytic domain recombinant Kinase enzyme+Tyr peptide substrate (Invitrogen, CA); purchased Invitrogen
T3 sequence (P23458 875-1153 limits assumed): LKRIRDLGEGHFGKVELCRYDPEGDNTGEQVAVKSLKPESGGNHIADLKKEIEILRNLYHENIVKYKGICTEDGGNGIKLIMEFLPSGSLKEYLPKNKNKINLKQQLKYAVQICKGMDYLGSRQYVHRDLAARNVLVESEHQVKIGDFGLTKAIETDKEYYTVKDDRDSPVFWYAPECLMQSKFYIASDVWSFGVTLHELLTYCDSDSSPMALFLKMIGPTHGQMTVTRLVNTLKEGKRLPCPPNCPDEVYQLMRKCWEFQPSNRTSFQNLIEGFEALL
Outline: as §1

T1 sequence (P52333 822-1111 limits assumed): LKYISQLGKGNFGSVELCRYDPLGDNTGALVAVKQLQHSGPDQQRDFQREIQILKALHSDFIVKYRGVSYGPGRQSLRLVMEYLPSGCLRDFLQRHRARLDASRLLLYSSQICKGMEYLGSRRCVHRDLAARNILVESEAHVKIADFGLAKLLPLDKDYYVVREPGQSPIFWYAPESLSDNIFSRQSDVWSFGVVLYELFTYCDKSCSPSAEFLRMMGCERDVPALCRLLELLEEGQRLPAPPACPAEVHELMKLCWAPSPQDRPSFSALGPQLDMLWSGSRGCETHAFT

| SMILES | IC50 [1] [nM] | IC50 [2] [nM] | IC50 [3] [nM] |
| --- | --- | --- | --- |
| CN(C)C(=O)C1CCN(c2ccc(Nc3cc(NCc4cccc5[nH]ccc45)c(C(N)=O)cn3)cc2)CC1 [Example 345, 4-((1H-indol-4-yl)methylamino)-6-(4-(4-(dimethylcarbamoyl)piperidin-1-yl)phenylamino)nicotinamide] | < 1 | 1 to 10 | 1 to 10 |
| NC(=O)c1cnc(Nc2ccc(N3CCC(F)(F)CC3)cc2)cc1NC1(c2ccccc2)CC1 [Example 131, 6-(4-(4,4-difluoropiperidin-1-yl)phenylamino)-4-(1-phenylcyclopropylamino)nicotinamide] | 100 to 1000 | > 1000 | > 1000 |
| NC(=O)c1cnc(Nc2ccc(C3CCOCC3)cc2)cc1NCc1ccncn1 [Example 181, 4-(pyrimidin-4-ylmethylamino)-6-(4-(tetrahydro-2H-pyran-4-yl)phenylamino)nicotinamide] | > 1000 | > 1000 | > 1000 |
| CCC(=O)N(C)c1ccc(Nc2cc(NCc3cccc(F)n3)c(C(N)=O)cn2)cc1 [Example 488, 4-((6-fluoropyridin-2-yl)methylamino)-6-(4-(N-methylpropionamido)phenylamino)nicotinamide] | 10 to 100 | 100 to 1000 | 100 to 1000 |
| CCC(=O)N1CCC(c2ccc(Nc3cc(NCc4c(F)cccc4F)c(C(N)=O)cn3)cc2)CC1 [Example 203, 4-(2,6-difluorobenzylamino)-6-(4-(1-propionylpiperidin-4-yl)phenylamino)nicotinamide] | 1 to 10 | 10 to 100 | 100 to 1000 |
| NC(=O)c1cnc(Nc2ccc(CC(=O)NCC(F)(F)F)cc2)cc1NCc1ccccc1 [Example 341, 4-(benzylamino)-6-(4-(2-oxo-2-(2,2,2-trifluoroethylamino)ethyl)phenylamino)nicotinamide] | 1 to 10 | 100 to 1000 | 100 to 1000 |
| COc1ccc(Nc2cc(NCc3cccc4ccn(C)c34)c(C(N)=O)cn2)cc1 [Example 317, 6-(4-methoxyphenylamino)-4-((1-methyl-1H-indol-7-yl)methylamino)nicotinamide] | 100 to 1000 | > 1000 | > 1000 |
| CC(=O)Nc1ccc(Nc2cc(NCc3cccc(F)n3)c(C(N)=O)cn2)cc1 [Example 486, 6-(4-acetamidophenylamino)-4-((6-fluoropyridin-2-yl)methylamino)nicotinamide] | 10 to 100 | 100 to 1000 | 100 to 1000 |
| NC(=O)c1cnc(Nc2cccc(C3CCOCC3)c2)cc1NC1CCOCC1 [Example 151, 6-(3-(tetrahydro-2H-pyran-4-yl)phenylamino)-4-(tetrahydro-2H-pyran-4-ylamino)nicotinamide] | 100 to 1000 | 100 to 1000 | 100 to 1000 |
| COC[C@@H](Nc1cc(Nc2ccc(OC)cc2)ncc1C(N)=O)c1ccccc1 [Example 260, (S)-4-(2-methoxy-1-phenylethylamino)-6-(4-methoxyphenylamino)nicotinamide] | 10 to 100 | > 1000 | > 1000 |
| COc1ccc(Nc2cc(NCc3cccc(F)c3F)c(C(N)=O)cn2)cc1 [Example 101, 4-(2,3-difluorobenzylamino)-6-(4-methoxyphenylamino)nicotinamide] | 10 to 100 | > 1000 | > 1000 |
| CCC(=O)N1CC(c2ccc(Nc3cc(NCc4cccc5ccsc45)c(C(N)=O)cn3)cc2)C1 [Example 491, 4-(benzo[b]thiophen-7-ylmethylamino)-6-(4-(1-propionylazetidin-3-yl)phenylamino)nicotinamide] | 1 to 10 | 10 to 100 | 100 to 1000 |
| COc1ccc(Nc2cc(Nc3ccc(C)cc3)c(C(N)=O)cn2)cc1 [Example 33, 6-(4-methoxyphenylamino)-4-(p-tolylamino)nicotinamide] | > 1000 | > 1000 | > 1000 |
| CN(C)C(=O)c1ccc(Nc2cc(NCc3cccc(-c4cccnc4)c3)c(C(N)=O)cn2)cc1 [Example 414, 6-(4-(dimethylcarbamoyl)phenylamino)-4-(3-(pyridine-3-yl)benzylamino)nicotinamide] | 1 to 10 | 100 to 1000 | 100 to 1000 |
| CCC(=O)N1CCC(CNc2cc(Nc3ccc(C4CCOCC4)cc3)ncc2C(N)=O)CC1 [Example 161] | > 1000 | > 1000 | > 1000 |
| CC(=O)N(C)c1ccc(Nc2cc(NCc3cccc4[nH]ccc34)c(C(N)=O)cn2)cc1 [Example 469, 4-((1H-indol-4-yl)methylamino)-6-(4-(N-methylacetamido)phenylamino)nicotinamide] | 1 to 10 | 10 to 100 | 10 to 100 |
| CN(CC(F)(F)F)C(=O)c1ccc(Nc2cc(NCc3cncc(F)c3)c(C(N)=O)cn2)cc1 [Example 314, 4-((5-fluoropyridin-3-yl)methylamino)-6-(4-(methyl(2,2,2-trifluoroethyl)carbamoyl)phenylamino)nicotinamide] | 10 to 100 | 100 to 1000 | > 1000 |

| SMILES | IC50 [1] [nM] | IC50 [2] [nM] | IC50 [3] [nM] |
| --- | --- | --- | --- |
| NC(=O)c1cnc(Nc2ccc(C3CCOCC3)cc2)cc1NCC1CC1 [Example 153, 4-(cyclopropylmethylamino)-6-(4-(tetrahydro-2H-pyran-4-yl)phenylamino)nicotinamide] | 100 to 1000 | 100 to 1000 | > 1000 |
| N#Cc1ccc(Nc2cc(NCc3ccccc3)c(C(N)=O)cn2)cc1C#N [Example 393] | > 1000 | > 1000 | > 1000 |
| CS(=O)(=O)NCc1ccc(Nc2cc(NCc3cccc4ccsc34)c(C(N)=O)cn2)cc1 [Example 353, 4-(benzo[b]thiophen-7-ylmethylamino)-6-(4-(methylsulfonamidomethyl)phenylamino)nicotinamide] | 1 to 10 | 10 to 100 | 100 to 1000 |
| CCC(=O)N1CCC(c2ccc(Nc3cc(NCC4CCCCC4)c(C(N)=O)cn3)cc2)CC1 [Example 192, 4-(cyclohexylmethylamino)-6-(4-(1-propionylpiperidin-4-yl)phenylamino)nicotinamide] | 10 to 100 | 100 to 1000 | > 1000 |
| CN(C)C(=O)C1CCN(c2ccc(Nc3cc(NCc4cccc5ccsc45)c(C(N)=O)cn3)cc2Cl)CC1 [Example 351, 4-(benzo[b]thiophen-7-ylmethylamino)-6-(3-chloro-4-(4-(dimethylcarbamoyl)piperidin-1-yl)phenylamino)nicotinamide] | 1 to 10 | 100 to 1000 | 100 to 1000 |
| CN(C)C(=O)c1cc(Nc2cc(NCc3ccccc3)c(C(N)=O)cn2)ccc1N(C)C [Example 440, 4-(benzylamino)-6-(4-(dimethylamino)-3-(dimethylcarbamoyl)phenylamino)nicotinamide] | 10 to 100 | 100 to 1000 | 100 to 1000 |
| NC(=O)c1cnc(Nc2cccc(OCC(=O)N3CCOCC3)c2)cc1NC1(c2ccccc2)CC1 [Example 134, 6-(3-(2-morpholino-2-oxoethoxy)phenylamino)-4-(1-phenylcyclopropylamino)nicotinamide] | 10 to 100 | > 1000 | > 1000 |
| NC(=O)c1cnc(Nc2ccc(F)c(C(=O)N3CCC3)c2)cc1NCc1ccccc1 [Example 439, 6-(3-(azetidine-1-carbonyl)-4-fluorophenylamino)-4-(benzylamino)nicotinamide] | 10 to 100 | 100 to 1000 | 100 to 1000 |
| CN(C)S(=O)(=O)Cc1ccc(Nc2cc(NCc3cccc(-c4ccncc4)c3)c(C(N)=O)cn2)cc1 [Example 417, 6-(4-((N,N-dimethylsulfamoyl)methyl)phenylamino)-4-(3-(pyridine-4-yl)benzylamino)nicotinamide] | 1 to 10 | 100 to 1000 | 100 to 1000 |
| NC(=O)c1cnc(Nc2ccc(C3CNC3)cc2)cc1NCc1cccc(F)c1F [Example 212, 6-(4-(azetidin-3-yl)phenylamino)-4-(2,3-difluorobenzylamino)nicotinamide] | 1 to 10 | 10 to 100 | 100 to 1000 |
| CN(C)C(=O)c1ccc(Nc2cc(NCc3cccc(S(C)(=O)=O)c3)c(C(N)=O)cn2)cc1 [Example 302, 6-(4-(dimethylcarbamoyl)phenylamino)-4-(3-(methylsulfonyl)benzylamino)nicotinamide] | 10 to 100 | 100 to 1000 | > 1000 |
| CC(C)c1ccc(Nc2cc(NCc3ccccc3F)c(C(N)=O)cn2)cc1 [Example 158, 4-(2-fluorobenzylamino)-6-(4-isopropylphenylamino)nicotinamide] | 10 to 100 | > 1000 | > 1000 |
| CCS(=O)(=O)N1CCC(CNc2cc(Nc3ccc(C4CCOCC4)cc3)ncc2C(N)=O)CC1 [Example 160, 4-((1-(ethylsulfonyl)piperidin-4-yl)methylamino)-6-(4-(tetrahydro-2H-pyran-4-yl)phenylamino)nicotinamide] | > 1000 | > 1000 | > 1000 |
| CCC(=O)N1CCC(c2ccc(Nc3cc(NCc4nccs4)c(C(N)=O)cn3)cc2)CC1 [Example 177, 6-(4-(1-propionylpiperidin-4-yl)phenylamino)-4-(thiazol-2-ylmethylamino)nicotinamide] | 10 to 100 | 100 to 1000 | 100 to 1000 |
| N#CC1(C(=O)N2CCC(c3ccc(Nc4cc(NCc5ccccc5F)c(C(N)=O)cn4)cc3)CC2)CC1 [Example 118, 6-(4-(1-(1-cyanocyclopropanecarbonyl)piperidin-4-yl)phenylamino)-4-(2-fluorobenzylamino)nicotinamide] | 10 to 100 | > 1000 | > 1000 |
| CCC(=O)N1CC(c2ccc(Nc3cc(NCc4ccccc4)c(C(N)=O)cn3)cc2)C1 [Example 326, 4-(benzylamino)-6-(4-(1-propionylazetidin-3-yl)phenylamino)nicotinamide] | 1 to 10 | 100 to 1000 | 100 to 1000 |
